Measurements: patent US20230157970A1, “Targeted Therapy of Kidney Fibrosis” (Board of Regents, The University of Texas System, priority 2021, published 2023)

Columns and labels:
Bcl2 = assay: Western blot analysis from the kidney sample, Bcl2; format: in vivo, mice; conditions: 10 mg/kg, compared with other groups
Protocol: This example was an animal study that created a CKD model by injecting 250 mg/kg folic acid intraperitonially (single injection). After 15 days the treatment started. The mice were divided in 5 groups of untreated, healthy, Fausidil, PLGA-Navitoclax, and PLGA-AT2-Navitoclax.
FIG. 8: Western blot analysis from the kidney sample. Bcl2 expression was decreased in the sample collected from different group Healthy control, Untreated control, Navi(10 mg/kg oral), Fausidil(10 mg/kg IP), PLGA-Navi(10 mg/kg IV), PLGA-AT2-Navi(10 mg/kg IV) of mice.

[1] = tested on: apoptosis in kidney section; assay: TUNEL assay of kidney section; format: in vivo, mice
Protocol: This example was an animal study that created a CKD model by injecting 250 mg/kg folic acid intraperitonially (single injection). After 15 days the treatment started. The mice were divided in 5 groups of untreated, healthy, Fausidil, PLGA-Navitoclax, and PLGA-AT2-Navitoclax. FIGS. 9A-9R: Immunohistochemistry (IHC) and TUNEL assay of kidney section. IHC for alpha-SMA protein of different treatment group (A-F). The arrow pointed to the dark dot which represented the alpha-SMA protein. […] The dark dot from FIGS. 9G-9L represented the CTGF protein.

CKD model = assay: Folic acid CKD model, kidney size after harvesting; format: in vivo; conditions: folic acid CKD mice; 10 mg/kg, Navi oral, nanoparticles IV
Protocol: This example was an animal study that created a CKD model by injecting 250 mg/kg folic acid intraperitonially (single injection). After 15 days the treatment started. The mice were divided in 5 groups of untreated, healthy, Fausidil, PLGA-Navitoclax, and PLGA-AT2-Navitoclax. FIG. 5: Figure: Image of the kidney after harvesting. The kidney from different treatment groups: A-Healthy control 510, B-Untreated control 520, C-Navi(10 mg/kg oral) 530, D-Fausidil(10 mg/kg IP) 540, E-PLGA-Navi(10 mg/kg IV) 550, F-PLGA-AT2-Navi(10 mg/kg IV) 560. FIGS. 6A-6B: The size of the untreated kidney shrunk by 42.46% (p-value 0.0062) than the healthy control (A). […] The weight of kidney (B) was also measured in gm and the weight 620 of the kidney treated with PLGA-AT2-Navi.

CC1(C)CCC(c2ccc(Cl)cc2)=C(CN2CCN(c3ccc(C(=O)NS(=O)(=O)c4ccc(N[C@H](CCN5CCOCC5)CSc5ccccc5)c(S(=O)(=O)C(F)(F)F)c4)cc3)CC2)C1 [Navitoclax]
Bcl2 expression (Bcl2): less expression of bcl2 | apoptosis (broken nucleus of DNA) by TUNEL [1]: apoptosis was observed | increase of kidney size after treatment (CKD model): 43.95%
